Measurements taken from patent US10301286B2, “Piperazine derivative” (Astellas Pharma Inc., priority 2015, dated 2019).
Structures can show the parent of a compound that is named as a salt.

Columns and labels:
human MC1 receptor = human MC1 receptor (Homo sapiens (Human), UniProt Q01726); assay: Human MC receptor activation, cAMP production in cells expressing human MC1 receptor; type: cell-based; conditions: FreeStyle 293-F cells transiently expressing human MC1 receptor, α-MSH maximum = 100%
Excerpt: (§1) (1) Construction of Human MC Receptor-Expressing Vector
(§2) A human MC4 receptor gene (GenBank Accession No.: NM_005912.2), a human MC1 receptor gene (GenBank Accession No.: NM_002386.3), or a human MC3 receptor gene (GenBank Accession No.: NM_019888.3) was introduced into an expression vector pcDNA™ 3.1/V5-His TOPO (registered trademark) (Thermo Fisher Scientific Inc.).
(§3) (2) Construction of Cells Transiently Expressing Human MC Receptor
(§4) An expression vector for a human MC4, MC1, or MC3 receptor was introduced into FreeStyle™ 293-F cell (Thermo Fisher Scientific Inc., product number: R790-07). For the introduction, electroporation was employed. That is, 1×10^7 FreeStyle™ 293-F cell were suspended in 80 μL of an electroporation buffer (Thermo Fisher Scientific Inc., product number: B201-100), and 20 μg of the expression vector was added thereto. The resultant was put into a cuvette (OC-100 Processing Assembly, MaxCyte, Inc.) and electroporated with MaxCyte SIX (registered trademark) (MaxCyte, Inc.). The cells were cultured over one day, suspended in a Cell Banker (registered trademark) 1 (JUJI FIELD Inc.), product number: BLC-1), and stored frozen until their use.
(§5) (3) Measurement of Amount of cAMP Produced
(§6) Measurement was carried out by using a LANCE (registered trademark) Ultra cAMP Kit (PerkinElmer, Inc.) in accordance with the attached instructions. That is, after dissolution in DMSO, the test compound (a final concentration of 1 pM to 30 μM) diluted with an assay buffer (Hank's balanced salt solution, 5 mM 4-(2-hydroxyethyl)-1-piperazineethanesulfonic acid (HEPES), 0.5 mM 3-isobutyl-1-methylxanthine (IBMX), 0.1% bovine serum albumin, pH 7.4), or α-MSH (Bachem Inc., a final concentration of 1 pM to 30 μM) was added to OptiPlate-384 (PerkinElmer, Inc.). Furthermore, a suspension of cells transiently expressing the human MC4, MC1, or MC3 receptor prepared by using the assay buffer was added thereto at 1,000 cells/well, followed by being left to stand at room temperature for about 1 hour. Thereafter, an Eu-cAMP tracer solution and an ULight™-anti-cAMP solution were added thereto, followed by being left to stand at room temperature for about 1 hour. The amount of cAMP was calculated using EnVision (registered trademark) (PerkinElmer Inc.).
(§7) For the agonistic activity, an efficacy (EC50 (μM)) was calculated by a non-linear regression method with a Sigmoid-Emax model, by defining the maximum reaction with α-MSH as 100% and the reaction with the vehicle alone as 0%, respectively.

human MC3 receptor = human MC3 receptor (Homo sapiens (Human), UniProt P41968); assay: Human MC receptor activation, cAMP production in cells expressing human MC3 receptor; type: cell-based; conditions: FreeStyle 293-F cells transiently expressing human MC3 receptor, α-MSH maximum = 100%
Sequence of human MC3 receptor (P41968 whole entry): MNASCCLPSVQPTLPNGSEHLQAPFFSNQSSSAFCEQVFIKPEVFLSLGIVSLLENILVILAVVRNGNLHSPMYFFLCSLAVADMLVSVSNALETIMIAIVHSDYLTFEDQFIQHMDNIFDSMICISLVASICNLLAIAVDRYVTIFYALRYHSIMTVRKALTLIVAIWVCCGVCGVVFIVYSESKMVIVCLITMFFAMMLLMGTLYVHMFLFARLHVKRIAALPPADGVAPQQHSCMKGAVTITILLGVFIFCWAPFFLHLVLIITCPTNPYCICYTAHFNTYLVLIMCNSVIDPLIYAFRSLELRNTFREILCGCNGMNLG
Excerpt: as §1, §2, §3, §4, §5, §6, §7

rat MC4 receptor = rat MC4 receptor (Rattus norvegicus (Rat), UniProt P70596); assay: Rat MC4 receptor activation, cAMP production in cells expressing rat MC4 receptor; type: cell-based; conditions: FreeStyle 293-F cells transiently expressing rat MC4 receptor, α-MSH maximum = 100%
Sequence of rat MC4 receptor (P70596 whole entry): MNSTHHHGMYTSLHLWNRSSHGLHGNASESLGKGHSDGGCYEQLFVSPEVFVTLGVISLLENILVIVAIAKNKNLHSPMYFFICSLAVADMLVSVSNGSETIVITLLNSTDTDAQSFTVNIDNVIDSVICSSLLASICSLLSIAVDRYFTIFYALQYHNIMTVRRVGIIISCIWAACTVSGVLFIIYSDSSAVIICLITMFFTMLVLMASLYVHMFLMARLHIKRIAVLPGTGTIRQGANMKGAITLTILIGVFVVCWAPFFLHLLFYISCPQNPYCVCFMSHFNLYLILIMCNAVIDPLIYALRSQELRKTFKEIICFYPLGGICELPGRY
Excerpt: (1) Construction of Rat MC4 Receptor-Expressing Vector
A rat MC4 receptor gene (GenBank Accession No.: NM_013099.2) was introduced into an expression vector pcDNA™ 3.1/V5-His TOPO (registered trademark) (Thermo Fisher Scientific Inc.).
(2) Construction of Cells Transiently Expressing Rat MC4 Receptor
as §4, with “rat MC4” for “human MC4, MC1, or MC3”, “Inc.).” for “Inc., product number: R790-07).”, “Inc.),” for “Inc., product number: B201-100),”, “STX” for “SIX”, “Inc.),” for “Inc.), product number: BLC-1),”, “until” for “until their”
as §5
Measurement was carried out in accordance with the attached instructions, using a LANCE (registered trademark) Ultra cAMP Kit (PerkinElmer, Inc.). That is, after dissolution in DMSO, the test compound (a final concentration of 1 pM to 30 μM) diluted with an assay buffer (Hank's balanced salt solution, 5 mM HEPES, 0.5 mM IBMX, 0.1% bovine serum albumin, pH 7.4), or α-MSH (Bachem Inc., a final concentration of 1 pM to 30 μM) was added to OptiPlate-384 (PerkinElmer, Inc.). Furthermore, a suspension of cells transiently expressing the rat MC4 receptor, that had been prepared using the assay buffer, was added thereto at 1,000 cells/well, followed by being left to stand at room temperature for about 1 hour. Thereafter, an Eu-cAMP tracer solution and an ULight™-anti-cAMP solution were added thereto, followed by being left to stand at room temperature for about 1 hour. The amount of cAMP was calculated using EnVision (registered trademark) (PerkinElmer Inc.).
as §7

[1] = test system: Male Sprague Dawley (SD) rats; assay: Action on drug-induced voiding dysfunction model rat; type: in vivo; conditions: po, administered into the stomach, atropine sulfate + midodrine hydrochloride model, inhibition of decrease in voiding efficiency or increase of residual urine, P<0.05, read-out: Minimum effective dose
Excerpt: Male Sprague Dawley (SD) rats (Japan SLC, Inc.) were anesthetized with isoflurane and a cannula was placed in bladder, the stomach, and the jugular vein. Then, the rats were awakened in a Ballman cage (Natsume Seisakusho Co., Ltd.). After a post-operative stabilization period, physiological saline was continuously infused into the bladder by an infusion pump (Terumo Corporation, product number: TE-331S) to induce voiding. Infusion of the physiological saline was stopped at the time of voiding, and the amount of the voided urine was measured using an electronic top-loading balance placed under the Ballman cage. After completion of voiding, the residual urine was collected by gravity through the cannula placed in the bladder, and weighed, and the weight was defined as the amount of the residual urine. Further, the intravesical pressure was measured by a pressure transducer (Nihon Kohden Corporation, product numbers: TP-400, TDX-100) through the bladder cannula. The test compound or the vehicle was administered into the stomach, and atropine sulfate (Sigma-Aldrich, Inc., 0.01 mg/kg), which is an anticholinergic drug, and midodrine hydrochloride (Sigma-Aldrich, Inc., 0.3 mg/kg), which is an α1 adrenergic receptor stimulant, were administered intravenously to induce voiding dysfunctions. The voiding efficiency (=[voided amount/(voided amount+amount of residual urine)]×100) and the amount of the residual urine before and after administration of the test compound or the vehicle were measured, and the amount changed was evaluated. The value with vehicle administration and the value with the test compound administration were compared in a Dunnett's multiple comparison test with a statistically significant difference (P<0.05), and the minimum dose at which the inhibitory effect on a decrease in voiding efficiency or an increase of the amount of residual urine had been observed was defined as a minimal effective dose (3 to 12 animals per group).

Sequence of human MC1 receptor (Q01726 whole entry): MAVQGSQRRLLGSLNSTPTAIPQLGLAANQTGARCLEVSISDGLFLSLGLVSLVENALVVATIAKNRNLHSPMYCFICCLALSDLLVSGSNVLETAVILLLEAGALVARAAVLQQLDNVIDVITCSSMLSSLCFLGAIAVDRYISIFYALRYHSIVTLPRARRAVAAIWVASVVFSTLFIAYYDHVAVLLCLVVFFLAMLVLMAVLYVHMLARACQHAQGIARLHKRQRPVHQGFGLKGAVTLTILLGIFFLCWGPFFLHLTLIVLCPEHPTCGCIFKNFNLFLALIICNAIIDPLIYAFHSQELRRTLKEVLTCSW

| SMILES | EC50 (human MC1 receptor) | EC50 (human MC3 receptor) | EC50 (rat MC4 receptor) | minimal effective dose [1] |
| --- | --- | --- | --- | --- |
| Cc1ccc(C[C@@H](C(=O)O)N2CCN(C(=O)[C@@H]3CN(C(C)(C)C)C[C@H]3c3ccc(Cl)cc3F)[C@@H](C)C2)c(F)c1 [Example 4, (2S)-2-[(3S)-4-{[(3S,4R)-1-tert-butyl-4-(4-chloro-2-fluorophenyl)pyrrolidin-3-yl]carbonyl}-3-methylpiperazin-1-yl]-3-(2-fluoro-4-methylphenyl)propanoic acid dihydrochloride] | 0.07 µM | 0.18 µM | 0.0013 µM | 0.03 mg/kg |
| C[C@H]1CN([C@@H](Cc2ccc3c(c2)CCC3)C(=O)O)CCN1C(=O)[C@@H]1CN(C(C)(C)C)C[C@H]1c1ccc(F)cc1F [Example 5, (2S)-2-[(3S)-4-{[(3S,4R)-1-tert-butyl-4-(2,4-difluorophenyl)pyrrolidin-3-yl]carbonyl}-3-methylpiperazin-1-yl]-3-(2,3-dihydro-1H-inden-5-yl)propanoic acid dihydrochloride] | 1.3 µM | 4.2 µM | 0.026 µM | 0.3 mg/kg |
| CCC[C@H]1CN([C@@H](Cc2ccc3ccccc3c2)C(=O)O)CCN1C(=O)[C@@H]1CN(C(C)(C)C)C[C@H]1c1ccc(F)cc1F [Example 9] | 0.39 µM | 0.91 µM | 0.0026 µM | 3 mg/kg |

Further lines, with some results ahead:

| EC50 (human MC1 receptor) | EC50 (human MC3 receptor) | EC50 (rat MC4 receptor) | SMILES | minimal effective dose [1] |
| --- | --- | --- | --- | --- |
| 0.86 µM | 3.7 µM | 0.021 µM | Cc1ccc(C[C@@H](C(=O)O)N2CCN(C(=O)[C@@H]3CN(C(C)(C)C)C[C@H]3c3ccc(Cl)cc3F)[C@@H](C)C2)cc1 [Example 11] | 0.3 mg/kg |
| 0.1 µM | 0.33 µM | 0.0017 µM | Cc1cc(F)c(C[C@@H](C(=O)O)N2CCN(C(=O)[C@@H]3CN(C(C)(C)C)C[C@H]3c3ccc(Cl)cc3F)[C@@H](C)C2)c(F)c1 [Example 76] | 0.03 mg/kg |
| 1.1 µM | 0.92 µM | 0.021 µM | Cc1ccc(C[C@@H](C(=O)O)N2CCN(C(=O)[C@@H]3CN(C4CCOCC4)C[C@H]3c3ccc(Cl)cc3F)[C@@H](C)C2)c(F)c1 [Example 87, (2S)-2-[(3S)-4-{[(3S,4R)-4-(4-chloro-2-fluorophenyl)-1-(tetrahydro-2H-pyran-4-yl)pyrrolidin-3-yl]carbonyl}-3-methylpiperazin-1-yl]-3-(2-fluoro-4-methylphenyl)propanoic acid dihydrochloride] | 0.1 mg/kg |
| 2.7 µM | 0.88 µM | 0.011 µM | Cc1cc(C)c(C[C@@H](C(=O)O)N2CCN(C(=O)[C@@H]3CN(C4CCOCC4)C[C@H]3c3ccc(Cl)cc3F)[C@@H](C)C2)c(F)c1 [Example 88] | 0.1 mg/kg |
| 1.3 µM | 0.78 µM | 0.0031 µM | Cc1cc(C)c(C[C@@H](C(=O)O)N2CCN(C(=O)[C@@H]3CN(C(C)(C)C)C[C@H]3c3ccc(Cl)cc3F)[C@@H](C)C2)c(C)c1 [Example 89] | 0.1 mg/kg |
